Measured values taken from article PMC7583961, “Development and Validation of an LC-MS/MS Assay to Quantitate 2′,4′,6′-Trihydroxyacetophenone in Rat and Dog Plasma and its Application to a Pharmacokinetic Study” (Molecules, 2020).

Columns and labels:
[1] = Pharmacokinetic study of orally administered THAP in rats (LC-MS/MS of plasma, noncompartmental analysis); format: in vivo, Sprague Dawley rats; conditions: for AUC(0-t) / Cmax / Tmax / half-life: plasma, rat, mean ± SD, n = 5
Procedure: (§1) Healthy Sprague Dawley rats (n = 15, mean ± SD weight 261.4 ± 6.8 g) and beagle dogs (n = 10, mean ± SD weight 9.85 ± 0.60 kg) were purchased from Orient Bio Inc. (Seongnam, Korea). The animals were kept in a light-controlled room at 22 ± 2 °C with relative humidity of 55 ± 5% in the Animal Center of Korea Preclinical Center (Gyeonggi-do, Korea). The pharmacokinetic study protocols (KPC-E2019099 for rats and KPC-M2019046 for dogs) were approved by the Animal Care and Use Committee of the Korea Preclinical Center (Gyeonggi-do, Korea).
(§2) Chromatographic separation was performed using an Agilent 1200 Series HPLC (Agilent Technologies, Inc., Palo Alto, CA, USA) system with a Gemini C18 column (50 × 2.0 mm, 3 µm, Phenomenex, Torrance, CA, USA) protected by a guard column at 40 °C. The mobile phase composed of 10 mM ammonium formate in water and methanol (10:90, v/v) was isocratically pumped into the HPLC system at a flow rate of 0.2 mL/min with a total run time of 2.5 min. The column was eluted into an API 4000 triple quadrupole mass spectrometer (Applied Biosystems, Framingham, Massachusetts, USA), operating in the multiple reaction monitoring (MRM) mode with a negative ion electrospray source. The optimized instrument settings were as follows: curtain gas flow of 20 L/h; collision gas flow of 6 L/h; ion source gas 1 pressure of 50 psi; ion source gas 2 pressure of 60 psi; ion spray voltage of −4500 V; and temperature of 500 °C. The precursor ions of THAP and IS were generated using declustering potentials of −100 and −75 V, respectively, and they were fragmented at a collision energy of −28 and −24 eV, respectively. The molecular mass transitions from precursor to product ion were optimized at m/z 166.89 > 82.8 for THAP and at 152.89 > 82.8 for IS. Data were processed using Analyst® program (Ver. 1.6.2, AB SCIEX, Toronto, ON, Canada).
(§3) Plasma samples were stored in a deep freezer at −70 °C and thawed at room temperature. An aliquot of each plasma sample (10 μL) was transferred to 1.75 mL microtubes (Axygen Scientific, Inc., California, USA). In each microtube, 20 μL of IS (2 μg/mL) and 500 μL of 100% cold acetonitrile were added and then vortexed for 10 min. After centrifugation at 20,800× g for 15 min, 50 μL of the supernatant was pipetted into a 2.0 mL microtube and diluted with 350 μL of 50% acetonitrile (v/v). After being vortexed for 10 min and centrifuged at 20,800× g at 4 °C for 10 min, a 2 μL aliquot was injected into the LC-MS/MS system for quantitation.
(§4) Male rats orally received a single dose of THAP (250, 500, or 750 mg/kg) dissolved in deionized water containing 2% CMC by gavages. Serial blood samples (0.22 mL each) were collected via the right jugular vein immediately before (0 h) and at 0.5, 1, 2, 3, 4, 6, 9, 12, 24, and 48 h (n = 5 per each sample time) post-dosing. Male dogs received a single oral dose of THAP tablet (500 mg) as either an immediate-release tablet (Group 1) or a sustained-release tablet (Group 2) (Table 5). Blood samples (1.0 mL) were drawn from a median vein of a forelimb at the following time points after the administration of THAP: 0.5, 1, 1.5, 2, 3, 4, 6, 8, 12, and 24 h (n = 5 per each sample time). After sampling blood from the animals, the cannula was flushed with an equal volume of heparinized saline solution (50 U/mL) to prevent coagulation and to replace the blood loss. Heparin was used as an anticoagulant throughout the study procedure. Plasma was harvested by centrifugation at 4 °C, 1700× g for 10 min and then stored at −70 °C before quantification. Noncompartmental analysis was performed to calculate the AUClast and T1/2 of THAP using WinNonlin version 8.1 (Pharsight Corporation, Mountain View, CA). The Cmax and Tmax of THAP were determined based on the individual plasma THAP concentration–time profiles.

[2] = Pharmacokinetic study of oral THAP IR or SR tablets in dogs (LC-MS/MS of plasma, noncompartmental analysis); format: in vivo; conditions: male, beagle; for AUC(0-t) / Cmax / Tmax / half-life: dog, plasma, po, 500 mg, mean ± SD, n = 5
Procedure: as §1, §2, §3, §4

[3] = Stability of THAP in rat plasma; format: in vitro ADME; conditions: for Plasma Stability (Mean %) Long-Term (−70 °C): 56 days; for Plasma Stability (Mean %) Long-Term (−70 °C) / Plasma Stability (Mean %) 4 °C (7 h) / Plasma Stability (Mean %) Autosampler (44 h, 10 °C) / Plasma Stability (Mean %) Freeze-Thaw Stability (5 Cycles) / Plasma Stability (Mean %) Room Temperature (7 h) / Plasma Stability (Mean %) −70 °C (7 h): n = 3
Procedure: (§5) The stability of THAP in rat and dog plasma was examined under the following conditions at concentrations of 0.3, 25, and 80 µg/mL (n = 3): freeze-thaw stability after five freeze-thaw cycles at −70 °C; short-term stability at room temperature, 4 °C, and −70 °C for 7 h; autosampler stability at 10 °C for 44 h; and long-term stability at −70 °C for 56 days and 32 days in rat and dog plasma, respectively. The stability of the stock solution at low (0.3 µg/mL) and high (80 µg/mL) QC concentrations (n = 3) stored at room temperature for 7 h was also tested by comparing their peak areas to those of freshly prepared stock solutions.

[4] = Stability of THAP in dog plasma; format: in vitro ADME; conditions: for Plasma Stability (Mean %) Long-Term (−70 °C): 32 days; for Plasma Stability (Mean %) Long-Term (−70 °C) / Plasma Stability (Mean %) 4 °C (7 h) / Plasma Stability (Mean %) Autosampler (44 h, 10 °C) / Plasma Stability (Mean %) Freeze-Thaw Stability (5 Cycles) / Plasma Stability (Mean %) Room Temperature (7 h) / Plasma Stability (Mean %) −70 °C (7 h): n = 3
Procedure: as §5

[5] = Stability of THAP stock solution at room temperature; format: physicochemical; conditions: room temperature 7 h, n = 3
Procedure: as §5

[6] = male, Sprague Dawley, oral 250 mg/kg aqueous solution (Group 1)
[7] = male, Sprague Dawley, oral 500 mg/kg aqueous solution (Group 2)
[8] = male, Sprague Dawley, oral 750 mg/kg aqueous solution (Group 3)
[9] = oral 500 mg THAP immediate-release tablet (Group 1)
[10] = oral 500 mg THAP sustained-release tablet (Group 2)
[11] = range over 0.3, 25 and 80 µg/mL

AUC(0-t) [1, 6]: 80.9 ± 11.8 µg·h/mL
Cmax [1, 6]: 64200 ± 16300 ng/mL
Tmax [1, 6]: 0.5 h
half-life [1, 6]: 11.3 ± 0.9 h
AUC(0-t) [1, 7]: 150 ± 35.8 µg·h/mL
Cmax [1, 7]: 81300 ± 32300 ng/mL
Tmax [1, 7]: 0.5 h
half-life [1, 7]: 8.3 ± 1.2 h
AUC(0-t) [1, 8]: 302 ± 113 µg·h/mL
Cmax [1, 8]: 147000 ± 44600 ng/mL
Tmax [1, 8]: 0.5 h
half-life [1, 8]: 8 ± 1.5 h
concentration at 12 h ([1]; male, Sprague Dawley, rat plasma sample of R06, 12 h after oral administration of THAP 500 mg/kg, read-out: measured plasma concentration of THAP): 374 ng/mL
plasma THAP concentrations close to the peak concentration ([1]; rats, THAP dose of 500 mg/kg and 750 mg/kg, above ULOQ): greater than 100 µg/mL
AUC(0-t) [2, 9]: 89.9 ± 32.8 µg·h/mL
Cmax [2, 9]: 24500 ± 5000 ng/mL
Tmax [2, 9]: 1 ± 1.1 h
half-life [2, 9]: 6.1 ± 4.6 h
AUC(0-t) [2, 10]: 130 ± 49.4 µg·h/mL
Cmax [2, 10]: 18800 ± 8500 ng/mL
Tmax [2, 10]: 6 ± 1.6 h
half-life [2, 10]: 6.4 ± 1.6 h
concentration at 24 h ([2]; dog plasma sample of R05, 24 h after oral administration of THAP 500 mg immediate-release tablet, read-out: measured plasma concentration of THAP): 302 ng/mL
Plasma Stability (Mean %) Long-Term (−70 °C) ([3]; nominal 0.3 µg/mL): 111.67%
Plasma Stability (Mean %) 4 °C (7 h) ([3]; nominal 0.3 µg/mL): 99.22%
Plasma Stability (Mean %) Autosampler (44 h, 10 °C) ([3]; nominal 0.3 µg/mL): 105.00%
Plasma Stability (Mean %) Freeze-Thaw Stability (5 Cycles) ([3]; nominal 0.3 µg/mL): 101.00%
Plasma Stability (Mean %) Room Temperature (7 h) ([3]; nominal 0.3 µg/mL): 98.22%
Plasma Stability (Mean %) −70 °C (7 h) ([3]; nominal 0.3 µg/mL): 98.11%
Plasma Stability (Mean %) Long-Term (−70 °C) ([3]; nominal 25 µg/mL): 104.15%
Plasma Stability (Mean %) 4 °C (7 h) ([3]; nominal 25 µg/mL): 106.91%
Plasma Stability (Mean %) Autosampler (44 h, 10 °C) ([3]; nominal 25 µg/mL): 104.80%
Plasma Stability (Mean %) Freeze-Thaw Stability (5 Cycles) ([3]; nominal 25 µg/mL): 102.84%
Plasma Stability (Mean %) Room Temperature (7 h) ([3]; nominal 25 µg/mL): 101.62%
Plasma Stability (Mean %) −70 °C (7 h) ([3]; nominal 25 µg/mL): 109.87%
Plasma Stability (Mean %) Long-Term (−70 °C) ([3]; nominal 80 µg/mL): 99.39%
Plasma Stability (Mean %) 4 °C (7 h) ([3]; nominal 80 µg/mL): 100.98%
Plasma Stability (Mean %) Autosampler (44 h, 10 °C) ([3]; nominal 80 µg/mL): 100.58%
Plasma Stability (Mean %) Freeze-Thaw Stability (5 Cycles) ([3]; nominal 80 µg/mL): 99.62%
Plasma Stability (Mean %) Room Temperature (7 h) ([3]; nominal 80 µg/mL): 100.47%
Plasma Stability (Mean %) −70 °C (7 h) ([3]; nominal 80 µg/mL): 101.61%
long-term stability at −70 °C for 56 days [3, 11]: 99.39–111.67%
stability in the autosampler at 10 °C for 44 h [3, 11]: 100.58–105.00%
stability over five freeze-thaw cycles [3, 11]: 99.62–102.84%
Plasma Stability (Mean %) Long-Term (−70 °C) ([4]; nominal 0.3 µg/mL): 102.89%
Plasma Stability (Mean %) 4 °C (7 h) ([4]; nominal 0.3 µg/mL): 111.89%
Plasma Stability (Mean %) Autosampler (44 h, 10 °C) ([4]; nominal 0.3 µg/mL): 99.67%
Plasma Stability (Mean %) Freeze-Thaw Stability (5 Cycles) ([4]; nominal 0.3 µg/mL): 101.33%
Plasma Stability (Mean %) Room Temperature (7 h) ([4]; nominal 0.3 µg/mL): 109.89%
Plasma Stability (Mean %) −70 °C (7 h) ([4]; nominal 0.3 µg/mL): 109.56%
Plasma Stability (Mean %) Long-Term (−70 °C) ([4]; nominal 25 µg/mL): 103.95%
Plasma Stability (Mean %) 4 °C (7 h) ([4]; nominal 25 µg/mL): 105.57%
Plasma Stability (Mean %) Autosampler (44 h, 10 °C) ([4]; nominal 25 µg/mL): 106.75%
Plasma Stability (Mean %) Freeze-Thaw Stability (5 Cycles) ([4]; nominal 25 µg/mL): 105.31%
Plasma Stability (Mean %) Room Temperature (7 h) ([4]; nominal 25 µg/mL): 106.66%
Plasma Stability (Mean %) −70 °C (7 h) ([4]; nominal 25 µg/mL): 105.88%
Plasma Stability (Mean %) Long-Term (−70 °C) ([4]; nominal 80 µg/mL): 99.45%
Plasma Stability (Mean %) 4 °C (7 h) ([4]; nominal 80 µg/mL): 98.87%
Plasma Stability (Mean %) Autosampler (44 h, 10 °C) ([4]; nominal 80 µg/mL): 97.58%
Plasma Stability (Mean %) Freeze-Thaw Stability (5 Cycles) ([4]; nominal 80 µg/mL): 98.41%
Plasma Stability (Mean %) Room Temperature (7 h) ([4]; nominal 80 µg/mL): 98.17%
Plasma Stability (Mean %) −70 °C (7 h) ([4]; nominal 80 µg/mL): 97.32%
long-term stability at −70 °C for 32 days [4, 11]: 99.45–103.95%
stability in the autosampler at 10 °C for 44 h [4, 11]: 97.58–106.75%
stability over five freeze-thaw cycles [4, 11]: 98.41–105.31%
mean percentage peak area of stock solution vs freshly prepared stock solution ([5]; 0.3 µg/mL): 102.15%
mean percentage peak area of stock solution vs freshly prepared stock solution ([5]; 80 µg/mL): 100.92%
SMILES: CC(=O)c1c(O)cc(O)cc1O [THAP, 2′,4′,6′-trihydroxyacetophenone]
